Experiments:
CLK1 = CLK1 (Homo sapiens, UniProt P49759); assay: KinomeScan; type: binding; details: 1 μM
MERTK = molecular target: T1, MERTK (Homo sapiens, UniProt Q12866); assay: KinomeScan; type: binding; details: 1 μM
T1 construct: purchased DiscoverX (KINOMEscan)

[1] = molecular target: T2, ABL1(F317L)-nonphosphorylated (Homo sapiens, UniProt P00519, F317L); assay: KinomeScan; type: binding; details: 1 μM
T2 construct: purchased DiscoverX (KINOMEscan)

LIMK2 = molecular target: T3, LIMK2 (Homo sapiens, UniProt P53671); assay: KinomeScan; type: binding; details: 1 μM
T3 construct: purchased DiscoverX (KINOMEscan)
T3 sequence (P53671 whole entry): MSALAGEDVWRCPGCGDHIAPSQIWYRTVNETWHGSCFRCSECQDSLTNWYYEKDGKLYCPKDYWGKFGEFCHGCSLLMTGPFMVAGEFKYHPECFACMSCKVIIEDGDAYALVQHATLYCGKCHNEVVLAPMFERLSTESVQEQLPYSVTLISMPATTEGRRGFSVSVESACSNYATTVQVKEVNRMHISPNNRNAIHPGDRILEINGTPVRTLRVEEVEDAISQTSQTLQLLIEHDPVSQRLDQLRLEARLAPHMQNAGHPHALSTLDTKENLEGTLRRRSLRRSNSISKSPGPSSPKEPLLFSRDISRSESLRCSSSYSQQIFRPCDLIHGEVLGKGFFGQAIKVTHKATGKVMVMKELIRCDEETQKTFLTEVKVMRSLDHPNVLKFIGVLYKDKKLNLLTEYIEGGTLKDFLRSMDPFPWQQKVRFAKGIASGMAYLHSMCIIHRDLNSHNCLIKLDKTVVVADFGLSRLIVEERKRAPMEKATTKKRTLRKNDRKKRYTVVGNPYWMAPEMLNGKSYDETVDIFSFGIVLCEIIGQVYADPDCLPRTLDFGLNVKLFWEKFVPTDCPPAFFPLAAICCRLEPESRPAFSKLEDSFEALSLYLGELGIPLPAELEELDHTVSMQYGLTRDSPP

CAMKK2 = molecular target: T4, CAMKK2 (Homo sapiens, UniProt Q96RR4); assay: KinomeScan; type: binding; details: 1 μM
T4 construct: purchased DiscoverX (KINOMEscan)

ITK = molecular target: T5, ITK (Homo sapiens, UniProt Q08881); assay: KinomeScan; type: binding; details: 1 μM
T5 construct: purchased DiscoverX (KINOMEscan)
T5 sequence (Q08881 whole entry): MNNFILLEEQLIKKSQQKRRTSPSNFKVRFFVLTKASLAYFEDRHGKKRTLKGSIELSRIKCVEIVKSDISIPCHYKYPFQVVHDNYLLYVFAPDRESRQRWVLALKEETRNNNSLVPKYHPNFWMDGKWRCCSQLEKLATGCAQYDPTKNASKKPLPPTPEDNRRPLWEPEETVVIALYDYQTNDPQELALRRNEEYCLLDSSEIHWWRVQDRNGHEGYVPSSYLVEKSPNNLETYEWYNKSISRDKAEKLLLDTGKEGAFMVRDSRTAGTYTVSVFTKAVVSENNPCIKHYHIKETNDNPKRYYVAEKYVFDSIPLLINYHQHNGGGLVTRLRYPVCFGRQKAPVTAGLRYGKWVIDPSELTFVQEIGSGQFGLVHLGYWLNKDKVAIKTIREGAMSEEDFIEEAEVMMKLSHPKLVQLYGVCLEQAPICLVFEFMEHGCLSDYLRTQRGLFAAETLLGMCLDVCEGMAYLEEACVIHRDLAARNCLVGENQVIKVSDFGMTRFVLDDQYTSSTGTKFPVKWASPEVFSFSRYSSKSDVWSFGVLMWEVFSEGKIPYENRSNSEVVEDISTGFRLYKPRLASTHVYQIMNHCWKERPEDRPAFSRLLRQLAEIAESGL

CDK4-cyclinD3 = molecular target: T6, CDK4-cyclinD3 (Homo sapiens, UniProt P11802); assay: KinomeScan; type: binding; details: 1 μM
T6 construct: purchased DiscoverX (KINOMEscan)

ACVR1B = molecular target: T7, ACVR1B (Homo sapiens, UniProt P36896); assay: KinomeScan; type: binding; details: 1 μM
T7 construct: purchased DiscoverX (KINOMEscan)
T7 sequence (P36896 24-505): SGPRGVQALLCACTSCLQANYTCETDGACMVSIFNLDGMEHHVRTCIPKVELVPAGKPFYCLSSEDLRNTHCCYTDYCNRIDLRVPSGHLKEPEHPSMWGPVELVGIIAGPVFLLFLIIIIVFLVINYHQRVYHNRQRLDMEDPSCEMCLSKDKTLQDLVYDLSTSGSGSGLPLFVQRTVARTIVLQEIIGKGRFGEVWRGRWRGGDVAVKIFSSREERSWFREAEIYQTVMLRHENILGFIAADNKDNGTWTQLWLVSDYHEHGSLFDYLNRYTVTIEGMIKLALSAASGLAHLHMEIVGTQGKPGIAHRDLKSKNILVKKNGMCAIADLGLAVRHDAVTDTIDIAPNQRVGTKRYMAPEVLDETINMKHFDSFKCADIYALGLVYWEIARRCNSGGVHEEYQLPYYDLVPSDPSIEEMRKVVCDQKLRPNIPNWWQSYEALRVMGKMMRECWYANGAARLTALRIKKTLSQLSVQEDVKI

EGFR = molecular target: T8, EGFR (Homo sapiens, UniProt P00533); assay: KinomeScan; type: binding; details: 1 μM
T8 construct: purchased DiscoverX (KINOMEscan)

CDK3 = molecular target: T9, CDK3 (Homo sapiens, UniProt Q00526); assay: KinomeScan; type: binding; details: 1 μM
T9 construct: purchased DiscoverX (KINOMEscan)

NDR1 = molecular target: T10, NDR1 (Homo sapiens, UniProt Q15208); assay: KinomeScan; type: binding; details: 1 μM
T10 construct: purchased DiscoverX (KINOMEscan)
T10 sequence (Q15208 whole entry): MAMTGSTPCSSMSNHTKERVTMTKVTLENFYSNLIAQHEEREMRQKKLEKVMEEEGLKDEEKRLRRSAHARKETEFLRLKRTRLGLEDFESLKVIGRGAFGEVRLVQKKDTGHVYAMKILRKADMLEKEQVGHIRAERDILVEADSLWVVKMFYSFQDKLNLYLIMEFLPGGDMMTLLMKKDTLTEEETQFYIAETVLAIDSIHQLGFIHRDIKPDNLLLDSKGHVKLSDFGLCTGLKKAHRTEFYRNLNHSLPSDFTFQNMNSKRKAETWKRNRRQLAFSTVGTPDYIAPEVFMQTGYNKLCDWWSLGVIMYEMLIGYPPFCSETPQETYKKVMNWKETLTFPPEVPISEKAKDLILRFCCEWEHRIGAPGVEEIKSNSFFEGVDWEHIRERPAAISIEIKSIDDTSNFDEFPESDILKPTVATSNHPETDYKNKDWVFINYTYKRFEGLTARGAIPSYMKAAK

ERBB3 = molecular target: T11, ERBB3 (Homo sapiens, UniProt P21860); assay: KinomeScan; type: binding; details: 1 μM
T11 construct: purchased DiscoverX (KINOMEscan)

SRC = molecular target: T12, SRC (Homo sapiens, UniProt P12931); assay: KinomeScan; type: binding; details: 1 μM
T12 construct: purchased DiscoverX (KINOMEscan)
T12 sequence (P12931 whole entry): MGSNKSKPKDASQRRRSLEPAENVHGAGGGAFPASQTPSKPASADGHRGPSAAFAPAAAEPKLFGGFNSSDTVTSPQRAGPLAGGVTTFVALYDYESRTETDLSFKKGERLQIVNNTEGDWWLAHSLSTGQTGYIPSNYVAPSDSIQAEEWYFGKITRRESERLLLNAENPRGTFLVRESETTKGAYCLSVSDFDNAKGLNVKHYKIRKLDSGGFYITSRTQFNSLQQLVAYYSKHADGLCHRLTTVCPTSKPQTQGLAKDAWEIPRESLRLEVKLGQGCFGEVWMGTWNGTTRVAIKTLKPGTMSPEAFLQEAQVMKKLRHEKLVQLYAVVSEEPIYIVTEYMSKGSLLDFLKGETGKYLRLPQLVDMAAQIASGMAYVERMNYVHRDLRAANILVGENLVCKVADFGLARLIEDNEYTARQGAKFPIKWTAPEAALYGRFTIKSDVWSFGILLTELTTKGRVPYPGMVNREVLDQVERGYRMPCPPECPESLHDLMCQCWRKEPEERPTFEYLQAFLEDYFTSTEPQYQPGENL

NIM1 = molecular target: T13, NIM1 (Homo sapiens, UniProt Q8IY84); assay: KinomeScan; type: binding; details: 1 μM
T13 construct: purchased DiscoverX (KINOMEscan)

HPK1 = molecular target: T14, HPK1 (Homo sapiens, UniProt Q92918); assay: KinomeScan; type: binding; details: 1 μM
T14 construct: purchased DiscoverX (KINOMEscan)
T14 sequence (Q92918 whole entry): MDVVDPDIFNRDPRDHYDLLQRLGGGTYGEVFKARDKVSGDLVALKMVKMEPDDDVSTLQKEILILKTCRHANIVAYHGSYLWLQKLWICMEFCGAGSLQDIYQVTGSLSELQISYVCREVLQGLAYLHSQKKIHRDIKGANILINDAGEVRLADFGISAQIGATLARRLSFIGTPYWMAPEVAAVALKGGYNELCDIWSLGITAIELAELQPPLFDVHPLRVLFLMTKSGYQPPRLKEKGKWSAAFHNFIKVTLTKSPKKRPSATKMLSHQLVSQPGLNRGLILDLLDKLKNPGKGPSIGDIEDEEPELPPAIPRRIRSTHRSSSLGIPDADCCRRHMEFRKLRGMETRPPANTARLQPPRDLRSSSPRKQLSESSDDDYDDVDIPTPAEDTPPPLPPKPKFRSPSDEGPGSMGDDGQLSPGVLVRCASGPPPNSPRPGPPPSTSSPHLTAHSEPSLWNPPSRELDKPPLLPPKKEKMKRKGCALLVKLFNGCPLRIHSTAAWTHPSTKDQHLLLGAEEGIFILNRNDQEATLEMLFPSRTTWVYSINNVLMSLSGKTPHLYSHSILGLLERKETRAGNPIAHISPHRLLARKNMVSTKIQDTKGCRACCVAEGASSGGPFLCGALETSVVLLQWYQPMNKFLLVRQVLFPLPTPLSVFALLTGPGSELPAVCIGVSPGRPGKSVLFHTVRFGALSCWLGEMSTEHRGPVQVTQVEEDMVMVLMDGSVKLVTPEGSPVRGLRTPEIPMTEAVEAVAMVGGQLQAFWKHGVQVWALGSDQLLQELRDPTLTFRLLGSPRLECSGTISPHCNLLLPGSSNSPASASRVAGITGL

FLT4 = molecular target: T15, FLT4 (Homo sapiens, UniProt P35916); assay: KinomeScan; type: binding; details: 1 μM
T15 construct: purchased DiscoverX (KINOMEscan)

BRK = molecular target: T16, BRK (Homo sapiens, UniProt Q13882); assay: KinomeScan; type: binding; details: 1 μM
T16 construct: purchased DiscoverX (KINOMEscan)

MKNK2 = molecular target: T17, MKNK2 (Homo sapiens, UniProt Q9HBH9); assay: KinomeScan; type: binding; details: 1 μM
T17 construct: purchased DiscoverX (KINOMEscan)
T17 sequence (Q9HBH9 whole entry): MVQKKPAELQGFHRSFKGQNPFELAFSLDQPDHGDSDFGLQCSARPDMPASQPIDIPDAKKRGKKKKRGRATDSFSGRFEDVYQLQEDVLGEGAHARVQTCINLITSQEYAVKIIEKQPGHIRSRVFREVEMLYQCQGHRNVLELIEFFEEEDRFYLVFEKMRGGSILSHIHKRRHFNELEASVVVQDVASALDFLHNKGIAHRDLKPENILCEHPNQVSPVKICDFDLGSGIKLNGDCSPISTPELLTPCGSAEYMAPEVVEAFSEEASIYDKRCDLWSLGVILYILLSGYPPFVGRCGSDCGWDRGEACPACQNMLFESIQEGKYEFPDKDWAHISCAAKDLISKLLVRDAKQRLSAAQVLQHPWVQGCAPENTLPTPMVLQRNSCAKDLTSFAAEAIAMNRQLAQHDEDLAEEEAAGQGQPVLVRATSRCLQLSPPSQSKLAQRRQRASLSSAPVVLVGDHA

MEK6 = molecular target: T18, MEK6 (Homo sapiens, UniProt P52564); assay: KinomeScan; type: binding; details: 1 μM
T18 construct: purchased DiscoverX (KINOMEscan)

DRAK1 = molecular target: T19, DRAK1 (Homo sapiens, UniProt Q9UEE5); assay: KinomeScan; type: binding; details: 1 μM
T19 construct: purchased DiscoverX (KINOMEscan)

DYRK1A = DYRK1A (Homo sapiens, UniProt Q13627); assay: Thr286-cyclin D1 phosphorylation in SH-SY5Y cells; type: cell-based; set-up: expressed in transfected cells; host or cells: SH-SY5Y neuroblastoma cells, doxycycline-inducible (gift from Dr. Walter Becker); details: 30 μM, 24 h
Description: Cell treatments. SH-SY5Y cells conditionally expressing human DYRK1A [36], under the control of doxycycline (gift from Dr. Walter Becker) were cultured Dulbecco’s Modified Eagle Medium (DMEM): Nutrient Mixture F-12 (DMEM/F-12, Gibco, c/o Invitrogen, Saint Aubin, France) containing 1% Penicillin Streptomycin mixture (Gibco) and 10% fetal bovine serum (FBS, Gibco) in a humidified, 5% CO2 incubator at 37 °C. Cells were split routinely once a week. They were first rinsed with phosphate buffered saline (PBS, Gibco) and detached from the plate bottom using 2 mL Trypsin (Gibco) at 37 °C for 3–4 min. Eight mL of fresh medium were added to the cell suspension and the mix was centrifuged for 3 min at 1000 rpm. The cell pellet was resuspended in fresh medium before seeding (½ dilution) in new 150 mm plates. First, 1 μg/mL doxycycline was used to induce DYRK1A expression and cells were incubated 24 h in a humidified, 5% CO2 incubator at 37 °C. Drugs (0, 3 or 30 μM final) were then added with a final concentration of 0.1% DMSO and cells were incubated for an additional 24 h in a humidified, 5% CO2 incubator at 37 °C. Afterwards, cells were scrapped in medium and centrifuged for 5 min at 3000 rpm at 4 °C. The pellets were washed twice with PBS, centrifuge for 5 min at 10,000 g at 4 °C, snap-frozen in liquid nitrogen and kept at −80 °C.
Western blot analysis. […]

FLT3(ITD) = assay: KinomeScan; type: binding, human; details: 1 μM
Description: (§1) Assays were performed essentially as described previously. For most assays, kinase-tagged T7 phage strains were grown in parallel in 24-well blocks in an E. coli host derived from the BL21 strain. E. coli were grown to log-phase and infected with T7 phage from a frozen stock (multiplicity of infection ~0.1) and incubated with shaking at 32 °C until lysis (~90 min). The lysates were centrifuged (6000× g) and filtered (0.2 μm) to remove cell debris. The remaining kinases were produced in HEK-293 cells and subsequently tagged with DNA for qPCR detection. […] The liganded beads were blocked with excess biotin and washed with blocking buffer (SeaBlock (Pierce, ThermoFisher Scientific, Illkirch, France), 1% BSA, 0.05% Tween 20, 1 mM DTT) to remove unbound ligand and to reduce non-specific phage binding. […] An 11-point threefold serial dilution of each test compound was prepared in 100% DMSO at 100× final test concentration which and subsequently diluted to 1× in the assay. All reactions were performed in polystyrene 96-well plates in a final volume of 0.135 mL. […] The kinase concentration in the eluates was measured by qPCR.

EGFR(L747-T751del,Sins) = assay: KinomeScan; type: binding, human; details: 1 μM
Description: as §1

T1 sequence (Q12866 21-999): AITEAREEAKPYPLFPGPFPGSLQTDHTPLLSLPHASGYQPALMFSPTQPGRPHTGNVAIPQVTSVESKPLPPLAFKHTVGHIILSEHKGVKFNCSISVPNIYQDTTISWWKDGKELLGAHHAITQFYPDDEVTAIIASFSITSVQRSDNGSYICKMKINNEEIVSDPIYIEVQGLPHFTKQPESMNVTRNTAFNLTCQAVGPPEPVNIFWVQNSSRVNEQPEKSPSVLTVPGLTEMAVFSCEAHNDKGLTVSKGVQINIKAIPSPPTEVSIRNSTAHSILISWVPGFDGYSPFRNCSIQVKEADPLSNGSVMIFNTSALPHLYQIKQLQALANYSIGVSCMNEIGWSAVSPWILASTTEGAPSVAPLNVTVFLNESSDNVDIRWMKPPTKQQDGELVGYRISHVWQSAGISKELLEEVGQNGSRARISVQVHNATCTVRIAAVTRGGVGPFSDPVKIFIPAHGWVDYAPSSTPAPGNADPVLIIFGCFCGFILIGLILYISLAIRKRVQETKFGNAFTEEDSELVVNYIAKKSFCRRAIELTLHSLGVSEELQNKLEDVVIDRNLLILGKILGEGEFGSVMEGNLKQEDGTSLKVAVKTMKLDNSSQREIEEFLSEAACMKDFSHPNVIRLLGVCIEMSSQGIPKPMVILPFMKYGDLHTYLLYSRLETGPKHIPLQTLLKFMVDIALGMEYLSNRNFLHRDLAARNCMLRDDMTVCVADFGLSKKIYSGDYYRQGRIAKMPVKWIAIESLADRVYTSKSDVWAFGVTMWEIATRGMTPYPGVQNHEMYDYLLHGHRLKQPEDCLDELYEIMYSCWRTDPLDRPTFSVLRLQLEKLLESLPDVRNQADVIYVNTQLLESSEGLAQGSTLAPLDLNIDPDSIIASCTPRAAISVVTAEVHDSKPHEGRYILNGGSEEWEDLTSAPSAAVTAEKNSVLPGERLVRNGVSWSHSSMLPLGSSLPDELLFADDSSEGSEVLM

COc1cc(/C=C2\N=C(N)NC2=O)ccc1O [Polyandrocarpamine A]
Score (CLK1): 32 | Score (MERTK): 100 | Score [1]: 100 | Score (LIMK2): 96 | Score (CAMKK2): 94 | Score (ITK): 94 | Score (CDK4-cyclinD3): 98 | Score (ACVR1B): 81 | Score (EGFR): 99 | Score (CDK3): 100 | Score (NDR1): 100 | Score (ERBB3): 100 | Score (SRC): 100 | Score (NIM1): 100 | Score (HPK1): 100 | Score (FLT4): 100 | Score (BRK): 100 | Score (MKNK2): 100 | Score (MEK6): 100 | Score (DRAK1): 42 | Phosphorylation of cyclin D1 at Thr286 (DYRK1A): partially inhibited | Score (FLT3(ITD)): 100 | Score (EGFR(L747-T751del,Sins)): 92

— paper PMC5666424, “Marine-Derived 2-Aminoimidazolone Alkaloids. Leucettamine B-Related Polyandrocarpamines Inhibit Mammalian and Protozoan DYRK & CLK Kinases” (Marine Drugs, 2017)
